Results published in patent US10414718B2, “Dezocine analogue” (priority 2016, dated 2019).
pEC50, pIC50: −log10 of the molar value. Counter-ions that a name gives are not always drawn.

Legend:
[1] = Pharmacokinetic study of intravenous injection in rats; conditions: SD, rat, plasma, 1 mg/kg
Text: Through the in vivo drug metabolism test in rats, values such as Cmax, t1/2, AUC, MRT and B/P ratio of the compound in vivo were used as indicators to evaluate the metabolism of the compound in rats.
1. Pharmacokinetic Study of Intravenous Injection of Dezocine and Analogues Thereof in Rats
Mixing the test compound with an appropriate amount of physiological saline solution of 20% polyethylene glycol 400, followed by vortex and sonicate, and adjusting the pH to 4-5 with hydrochloric acid to obtain 5 mg/mL approximately clear solution, filtering the solution by microporous filtering film to be used. Selecting 6 to 9 weeks old SD rats (Shanghai Sleek Laboratory Animal Co., Ltd.) and intravenously injecting the test compound solution at a dose of 1 mg/kg. Collecting whole blood in certain time to prepare and obtain plasma. Analyzing drug concentrations by LC-MS/MS method and calculating pharmacokinetic parameters using Phoenix WinNonlin software (Pharsight, USA).

μ opioid receptor = target: T1, μ opioid receptor (Homo sapiens, UniProt P35372); test: FLIPR intracellular calcium signal test, HEK293-μ cells; type: cell-based; conditions: for pEC50: EC50 (activation) test, read-out: Mu receptor EC50; for pIC50: IC50 (inhibition) test against EC80 of positive agonist, read-out: Mu receptor IC50
T1 construct: expressed in transfected cells
Protocol: (§1) Fluorescence imaging plate reader FLIPR was used to detect changes of intracellular calcium signals. EC50 and IC50 values of the compounds were used as indicators to evaluate the activation or inhibition of the compounds on μ, κ, and δ opioid receptors.
(§2) Cell lines: HEK293-μ, HEK293-κ and HEK293-δ, stable-transfected cell lines HEK293-μ, HEK293-κ and HEK293-δ; Cell culture media (DMEM, Invitrogen #11965118, 10% fetal bovine serum Invitrogen #10099141, Geneticin Selective Antibiotic (G418) 300 μg/mL, Invitrogen #10131027, Blasticidin-S HCL 2 ug/mL Invitrogen #A1113902)
(§3) 1. Cell Seeding (HEK293-μ, HEK293-κ and HEK293-δ Cells)
(§4) 1) Preheating medium, pancreatic enzyme, and DPBS in a 37° C. water bath. Aspirating the culture medium from the cell culture flask and washing it with 10 mL DPBS;
(§5) 2) Adding the preheated pancreatic enzyme solution to the cell culture flask, rotating the flask slightly to make the pancreatic enzymes evenly cover the cell surface of the flask, and then putting it into a 37° C., 5% CO2 incubator to digest for 1-2 minutes;
(§6) 3) Suspending the cells with 10-15 mL culture medium in each T150 cm^2 cell culture flask, centrifugating at 800 rpm for 5 minutes, and resuspending the cells with 10 mL culture medium, aspirating 1 mL cell resuspension to be counted with Vi-cell;
(§7) 4) Diluting HEK293-μ, HEK293-κ and HEK293-δ cells to 5×10^5/mL with culture medium, use multichannel pipette to add diluted cells into 384 plate (Greiner #781946) (50 μL/well, 25000 cells/well for HEK293-μ, HEK293-κ and HEK293-δ cells). Placing the cell plate in a 37° C., 5% CO2 incubator overnight.
(§8) 2. Adding Compound Samples:
(§9) 1) Diluting the compound to 20 mM with DMSO, 3 fold diluted, 8 gradients, double reduplicative wells, and adding it to the compound plate using an Echo ultrasonic liquid handler device (Echo liquid handler).
(§10) 1) Washing off the cell culture medium in 384 plate with vacuum pump, adding 20 μL Fluo-4 Direct fluorescent dye, then incubating in a 37° C., 5% CO2 incubator for 50 minutes, followed by equilibrating at room temperature for 10 minutes.
(§11) 2) EC50 test: Adding 20 uL HBSS buffer (containing 20 mM HEPES) to the compound plate, mixing well and centrifugating. Placing the cell plate and compound plate into FLIPR and reading the fluorescence value.
(§12) Calculating the EC80 value with the EC50 value of the positive agonist, preparing 4× EC80 solution, adding it to the 384 compound plate by multichannel pipette, and mixing well and centrifugating.
(§13) 4) IC50 test: In FLIPR, successively placing 4× EC80 plate, cell plate, FLIPR tip, running the program and reading the fluorescence value.
(§14) 4. Data Analyzing: Using Prism 5.0 to Analyze the Data and Calculate the EC50 and IC50 Values of the Compounds.

κ opioid receptor = target: T2, κ opioid receptor (Homo sapiens, UniProt P41145); test: FLIPR intracellular calcium signal test, HEK293-κ cells; type: cell-based; conditions: for pEC50: EC50 (activation) test, read-out: Kapp receptor EC50; for pIC50: IC50 (inhibition) test against EC80 of positive agonist, read-out: Kapp receptor IC50
T2 construct: expressed in transfected cells
Protocol: as §1, §2, §3, §4, §5, §6, §7, §8, §9, §10, §11, §12, §13, §14

δ opioid receptor = target: T3, δ opioid receptor (Homo sapiens, UniProt P41143); test: FLIPR intracellular calcium signal test, HEK293-δ cells; type: cell-based; conditions: for pEC50: EC50 (activation) test, read-out: Delt receptor EC50; for pIC50: IC50 (inhibition) test against EC80 of positive agonist, read-out: Delt receptor IC50
T3 construct: expressed in transfected cells
Protocol: as §1, §2, §3, §4, §5, §6, §7, §8, §9, §10, §11, §12, §13, §14

T2 sequence (P41145 whole entry): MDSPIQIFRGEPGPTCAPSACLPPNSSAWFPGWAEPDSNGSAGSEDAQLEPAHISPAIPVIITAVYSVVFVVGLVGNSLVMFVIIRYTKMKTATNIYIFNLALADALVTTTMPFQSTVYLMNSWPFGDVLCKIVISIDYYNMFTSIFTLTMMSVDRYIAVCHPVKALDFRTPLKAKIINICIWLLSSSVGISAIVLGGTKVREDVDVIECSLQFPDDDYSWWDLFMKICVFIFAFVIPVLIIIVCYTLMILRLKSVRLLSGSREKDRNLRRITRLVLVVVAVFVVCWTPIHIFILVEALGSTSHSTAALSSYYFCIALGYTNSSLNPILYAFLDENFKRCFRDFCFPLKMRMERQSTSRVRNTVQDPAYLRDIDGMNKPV
T1 sequence (P35372 whole entry): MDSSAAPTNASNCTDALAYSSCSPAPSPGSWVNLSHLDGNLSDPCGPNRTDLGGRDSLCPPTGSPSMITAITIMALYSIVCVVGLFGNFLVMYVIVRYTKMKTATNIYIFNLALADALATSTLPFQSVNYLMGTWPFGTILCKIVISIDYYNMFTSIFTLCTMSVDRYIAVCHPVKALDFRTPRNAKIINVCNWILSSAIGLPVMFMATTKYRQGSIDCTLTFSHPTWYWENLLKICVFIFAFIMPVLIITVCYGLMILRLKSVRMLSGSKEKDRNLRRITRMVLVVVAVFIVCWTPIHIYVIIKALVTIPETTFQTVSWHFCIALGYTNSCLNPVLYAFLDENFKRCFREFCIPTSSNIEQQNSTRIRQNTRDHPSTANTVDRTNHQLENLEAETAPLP
T3 sequence (P41143 whole entry): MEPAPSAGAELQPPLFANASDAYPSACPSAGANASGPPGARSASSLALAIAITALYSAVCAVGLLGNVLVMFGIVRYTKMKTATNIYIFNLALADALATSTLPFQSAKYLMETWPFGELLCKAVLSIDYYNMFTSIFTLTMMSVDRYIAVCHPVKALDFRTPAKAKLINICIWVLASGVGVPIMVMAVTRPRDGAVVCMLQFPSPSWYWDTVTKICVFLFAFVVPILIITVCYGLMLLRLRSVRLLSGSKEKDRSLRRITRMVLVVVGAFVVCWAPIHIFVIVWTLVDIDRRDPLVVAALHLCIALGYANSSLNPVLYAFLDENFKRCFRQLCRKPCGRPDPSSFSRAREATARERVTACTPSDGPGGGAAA

Row | Compound | AUC(0-t) [1] | C0 [1] | MRT last [1] | Vd [1] | clearance [1] | half-life [1] | pEC50 (μ opioid receptor) | pIC50 (μ opioid receptor) | pEC50 (κ opioid receptor) | pIC50 (κ opioid receptor) | pEC50 (δ opioid receptor) | pIC50 (δ opioid receptor)
1 | C[C@@]12CCCCC[C@@H](Cc3ccc(O)cc31)[C@@H]2N (relative stereo) [Dezocine, (−)-[5R-(5α,11α,13S*)]-13-amino-5,6,7,8,9,10,11,12-octahydro-5-methyl-5,11-methan obenzocyclodecen-3-ol] | 0.485 µM·h | 684 nM | 1.22 h | 12.2 L/kg | 139 mL/min/kg | 1.26 h | – | – | – | – | – | –
2 | CC12CCCCC(Cc3c(F)cc(O)cc31)C2N (single isomer, unassigned) [Compound 32] | – | – | – | – | – | – | 6.00 to 7.00 | 6.00 to 7.00 | 6.00 to 7.00 | 6.00 to 7.00 | < 4.00 | 5.00 to 6.00
3 | CC12CCCCC(Cc3c(F)cc(O)cc31)C2N (single isomer, unassigned) [Compound 33] | – | – | – | – | – | – | 6.00 to 7.00 | 5.00 to 6.00 | 6.00 to 7.00 | 6.00 to 7.00 | 5.00 to 6.00 | 5.00 to 6.00
4 | Cc1cc(O)cc2c1CC1CCCCCC2(C)C1N (stereo not shown) [Compound 1] | – | – | – | – | – | – | < 4.00 | ≥ 7.00 | < 4.00 | 6.00 to 7.00 | < 4.00 | 5.00 to 6.00
5 | CC12CCCCCC(Cc3ccc(O)cc31)C2N (stereo not shown) [Compound 2, reference compound] | – | – | – | – | – | – | – | – | < 4.00 | 5.00 to 6.00 | < 4.00 | < 4.00
6 | CC12CCCCCC(Cc3c(Cl)cc(O)cc31)C2N (stereo not shown) [Compound 3] | – | – | – | – | – | – | 6.00 to 7.00 | 6.00 to 7.00 | < 4.00 | 6.00 to 7.00 | < 4.00 | 5.00 to 6.00
7 | CC12CCCCCC(Cc3ccc(O)c(F)c31)C2N (stereo not shown) [Compound 4] | – | – | – | – | – | – | 6.00 to 7.00 | 6.00 to 7.00 | < 4.00 | 5.00 to 6.00 | < 4.00 | < 4.00
8 | CC12CCCCCC(Cc3cc(O)c(O)cc31)C2N (stereo not shown) [Compound 5] | – | – | – | – | – | – | 5.00 to 6.00 | 4.00 to 5.00 | 5.00 to 6.00 | 4.00 to 5.00 | < 4.00 | < 4.00
9 | CC12CCCCCC(Cc3c(F)cc(O)cc31)C2N (stereo not shown) [Compound 6] | – | – | – | – | – | – | ≥ 7.00 | 6.00 to 7.00 | < 4.00 | 5.00 to 6.00 | < 4.00 | 5.00 to 6.00
10 | COc1cc(O)cc2c1CC1CCCCCC2(C)C1N (stereo not shown) [Compound 7] | – | – | – | – | – | – | < 4.00 | 5.00 to 6.00 | < 4.00 | 5.00 to 6.00 | < 4.00 | < 4.00
11 | CC12CCOCCC(Cc3ccc(O)cc31)C2N (stereo not shown) [Compound 8] | – | – | – | – | – | – | 6.00 to 7.00 | 5.00 to 6.00 | < 4.00 | 5.00 to 6.00 | < 4.00 | < 4.00
12 | CCc1cc(O)cc2c1CC1CCCCCC2(C)C1N (stereo not shown) [Compound 9] | – | – | – | – | – | – | < 4.00 | 5.00 to 6.00 | < 4.00 | 5.00 to 6.00 | < 4.00 | < 4.00
13 | CC(C)c1cc(O)cc2c1CC1CCCCCC2(C)C1N (stereo not shown) [Compound 10] | – | – | – | – | – | – | < 4.00 | 4.00 to 5.00 | < 4.00 | 4.00 to 5.00 | < 4.00 | < 4.00
14 | CC12CCCCCC(Cc3c(-c4ccccc4)cc(O)cc31)C2N (stereo not shown) [Compound 11] | – | – | – | – | – | – | < 4.00 | < 4.00 | 4.00 to 5.00 | < 4.00 | < 4.00 | < 4.00
15 | CC12CCCCCC(Cc3cc(Br)c(O)cc31)C2N (stereo not shown) [Compound 12] | – | – | – | – | – | – | 4.00 to 5.00 | 4.00 to 5.00 | < 4.00 | < 4.00 | < 4.00 | < 4.00
16 | CC(C)c1cc2c(cc1O)C1(C)CCCCCC(C2)C1N (stereo not shown) [Compound 13] | – | – | – | – | – | – | 4.00 to 5.00 | 4.00 to 5.00 | 4.00 to 5.00 | 4.00 to 5.00 | < 4.00 | < 4.00
17 | Cc1cc2c(cc1O)C1(C)CCCCCC(C2)C1N (stereo not shown) [Compound 14] | – | – | – | – | – | – | 4.00 to 5.00 | 4.00 to 5.00 | < 4.00 | 4.00 to 5.00 | < 4.00 | < 4.00
18 | CC12CCCCCC(Cc3cc(C4CC4)c(O)cc31)C2N (stereo not shown) [Compound 15] | – | – | – | – | – | – | < 4.00 | < 4.00 | 4.00 to 5.00 | < 4.00 | < 4.00 | < 4.00
19 | CC12CCCCCC(Cc3c(CO)cc(O)cc31)C2N (stereo not shown) [Compound 18] | – | – | – | – | – | – | < 4.00 | 5.00 to 6.00 | < 4.00 | < 4.00 | < 4.00 | < 4.00
20 | CC12CCCCCC(Cc3cc(C#N)c(O)cc31)C2N (stereo not shown) [Compound 19] | – | – | – | – | – | – | < 4.00 | < 4.00 | < 4.00 | < 4.00 | < 4.00 | < 4.00
21 | CC12CCCCCC(Cc3cc(Cl)c(O)c(Cl)c31)C2N (stereo not shown) [Compound 20] | – | – | – | – | – | – | < 4.00 | 4.00 to 5.00 | < 4.00 | 4.00 to 5.00 | < 4.00 | < 4.00
22 | C[C@]12CCCCC[C@H](Cc3c(F)cc(O)cc31)[C@@H]2N [Compound 22] | – | – | – | – | – | – | 5.00 to 6.00 | 6.00 to 7.00 | < 4.00 | 5.00 to 6.00 | < 4.00 | 4.00 to 5.00
23 | C[C@]12CCCCC[C@H](Cc3c(Cl)cc(O)cc31)[C@H]2N [Compound 24] | – | – | – | – | – | – | 4.00 to 5.00 | 6.00 to 7.00 | < 4.00 | 5.00 to 6.00 | < 4.00 | 5.00 to 6.00
24 | C[C@@]12CCOCC[C@@H](Cc3ccc(O)cc31)[C@@H]2N [Compound 25] | – | – | – | – | – | – | 6.00 to 7.00 | 5.00 to 6.00 | < 4.00 | 5.00 to 6.00 | < 4.00 | 5.00 to 6.00
25 | C[C@]12CCOCC[C@H](Cc3ccc(O)cc31)[C@H]2N [Compound 26] | – | – | – | – | – | – | < 4.00 | 4.00 to 5.00 | < 4.00 | < 4.00 | < 4.00 | < 4.00
26 | CC12CCCCCC(Cc3c(O)cc(O)cc31)C2N (stereo not shown) [Compound 27] | – | – | – | – | – | – | < 4.00 | 5.00 to 6.00 | < 4.00 | 4.00 to 5.00 | < 4.00 | < 4.00
27 | CCCC12CCCCC(Cc3c(F)cc(O)cc31)C2N (stereo not shown) [Compound 30] | – | – | – | – | – | – | 6.00 to 7.00 | 6.00 to 7.00 | < 4.00 | 6.00 to 7.00 | < 4.00 | 4.00 to 5.00
28 | CC(C)CC12CCCCC(Cc3c(F)cc(O)cc31)C2N (stereo not shown) [Compound 31] | – | – | – | – | – | – | 4.00 to 5.00 | 4.00 to 5.00 | < 4.00 | 4.00 to 5.00 | < 4.00 | < 4.00
29 | CC12CCCCCC(Cc3cc(Cl)c(O)cc31)C2N (stereo not shown) [Hydrochloride of Compound 16] | – | – | – | – | – | – | 4.00 to 5.00 | 5.00 to 6.00 | < 4.00 | 5.00 to 6.00 | < 4.00 | < 4.00
30 | CC12CCCCCC(Cc3cc(F)c(O)cc31)C2N (stereo not shown) [Hydrochloride of Compound 17] | – | – | – | – | – | – | 5.00 to 6.00 | 5.00 to 6.00 | < 4.00 | 4.00 to 5.00 | < 4.00 | < 4.00
